# Assay results published in article PMC9984387, “The dynamic nature of netrin-1 and the structural basis for glycosaminoglycan fragment-induced filament formation” (Nature Communications, 2023).
# Biological target: NET1ΔC (Gallus gallus, UniProt Q90922)
# Test: X-ray crystal structure (native crystals soaked in SOS)
# Format: binding
# Details: 10 mM SOS soak 5-7 days; crystals from PEG 8000, CHES pH 9.5; one SOS per monomer, two sites SOSab and SOScd in LE-2 subdomain
compound,measurement,value
"O=S(=O)(O)OC[C@H]1O[C@@](COS(=O)(=O)O)(O[C@H]2O[C@H](COS(=O)(=O)O)[C@@H](OS(=O)(=O)O)[C@H](OS(=O)(=O)O)[C@H]2OS(=O)(=O)O)[C@@H](OS(=O)(=O)O)[C@@H]1OS(=O)(=O)O [SOS, sucrose-octasulfate]",X-ray crystal structure (native crystals soaked in SOS),in complex with one sucrose-octasulfate molecule bound per monomer
